Assay results from patent publication US20200197409A1, “HEPATITIS B VIRUS SURFACE ANTIGEN INHIBITOR” (FUJIAN COSUNTER PHARMACEUTICAL CO., LTD., priority 2017, published 2020).

How the values were obtained:
[1] = 14-day pre-toxicology tolerance test on rat; type: in vivo; conditions: once a day for 14 days, male rats
Procedure: [table] A total of 21 animals in this experiment were randomly divided into 7 groups. The animals were orally administered with the test compounds once a day for 14 consecutive days, and the toxicity was evaluated. Animal necropsy and tissue would be taken from the fixative, repaired, dehydrated, embedded, sectioned, stained and microscopically examined. These tissues included the liver, heart and lung of all animals, and spleen, stomach, duodenum, jejunum, ileum, and kidney of partial animals.

[2] = Plasma protein binding rate, human plasma; type: in vitro ADME; conditions: plasma of human, dialysis 4 hours at 37° C.
Procedure: (§1) The protein binding rate of Embodiment 6 in the plasma of human, CD-1 mouse and SD rat was determined, 796 μL of blank plasma was taken from human, CD-1 mice and SD rats, and 4 μL of test compound working solution (400 μM) or warfarin working solution (400 μM) was added to achieve a final concentration of the test compound and the warfarin in plasma samples of 2 μM. The samples were mixed thoroughly. The final concentration of organic phase DMSO was 0.5%, 50 μL of the test compound and warfarin plasma sample were transferred into sample receiving plates (three parallels), and a relative volume of corresponding blank plasma or buffer was immediately added, ensuring that the final volume of each sample well was 100 μL, and the volume ratio of plasma to dialysis buffer was 1:1. 400 μL of stop solution was added to these samples, which was used as a T0 sample for the determination of recovery and stability. […] The protein binding rate and the recovery rate were calculated by the formulas: % Protein unbinding rate (%)=100*Drug concentration through the dialysis membrane/drug concentration not through the dialysate: Protein binding rate (%)=100-% protein unbinding rate: % Recovery=100*(Drug concentration through the dialysis membrane+Drug concentration not through the dialysate)/Total drug concentration before undialysis. Protein binding rate and recovery rate were calculated.

[3] = Plasma protein binding rate, SD rat plasma; type: in vitro ADME; conditions: plasma of SD rat, dialysis 4 hours at 37° C.
Procedure: as §1

CYP2C9 = molecular target: T1, CYP2C9 (Homo sapiens, UniProt P11712); experiment: Inhibition of cytochrome P450 isoenzyme in human liver microsomes; type: in vitro ADME
T1 construct: from tissue; host or cells: human liver microsomes
Procedure: (§2) The inhibitory effect of the test compound on different subtypes of human cytochrome P450 isoenzyme was determined. Working solutions of the test compound, standard inhibitor (100×final concentration) and a mixed substrate were prepared. Microsomes frozen in a −80° C. refrigerator were thawed. 2 μL of test compound and the standard inhibitor solution were added into the corresponding wells, while 2 μL of the corresponding solvent was added into the non-inhibitor control well (NIC) and the blank control well (Blank). 20 μL of the mixed substrate solution was added into the corresponding wells except for the Blank well (20 μL of PB was added into the Blank well). Human liver microsomes solution was prepared (it was put back to the refrigerator immediately after use and the date was marked) and 158 μL of human liver microsomes solution were added into all of the wells immediately. The sample plate was pre-incubated under a 37° C. water bath, during which coenzyme factor (NADPH) solution was prepared immediately. After 10 minutes, 20 μL of coenzyme factor (NADPH) solution was added into all of the wells. After the sample plate was shaken evenly, it was incubated under a 37° C. water bath for 10 minutes. 400 μL of cold acetonitrile solution (the internal standard was 200 ng/mL Tolbutamide and Labetalol) was added to terminate the reaction at the corresponding time. After the sample plate was well-mixed, it was centrifuged at 4,000 rpm for 20 minutes to precipitate the protein. 200 μL of the supernatant was collected and added to 100 μL of water, and subjected to LC/MS/MS measurement after being shaken evenly.

CYP3A4-M = molecular target: T2, CYP3A4-M (Homo sapiens, UniProt P08684); experiment: as above; type: in vitro ADME
T2 construct: from tissue; host or cells: human liver microsomes
Procedure: as §2

CYP1A2 = molecular target: T3, CYP1A2 (Homo sapiens, UniProt P05177); experiment: as above; type: in vitro ADME
T3 construct: from tissue; host or cells: human liver microsomes
T3 sequence (P05177 1-516): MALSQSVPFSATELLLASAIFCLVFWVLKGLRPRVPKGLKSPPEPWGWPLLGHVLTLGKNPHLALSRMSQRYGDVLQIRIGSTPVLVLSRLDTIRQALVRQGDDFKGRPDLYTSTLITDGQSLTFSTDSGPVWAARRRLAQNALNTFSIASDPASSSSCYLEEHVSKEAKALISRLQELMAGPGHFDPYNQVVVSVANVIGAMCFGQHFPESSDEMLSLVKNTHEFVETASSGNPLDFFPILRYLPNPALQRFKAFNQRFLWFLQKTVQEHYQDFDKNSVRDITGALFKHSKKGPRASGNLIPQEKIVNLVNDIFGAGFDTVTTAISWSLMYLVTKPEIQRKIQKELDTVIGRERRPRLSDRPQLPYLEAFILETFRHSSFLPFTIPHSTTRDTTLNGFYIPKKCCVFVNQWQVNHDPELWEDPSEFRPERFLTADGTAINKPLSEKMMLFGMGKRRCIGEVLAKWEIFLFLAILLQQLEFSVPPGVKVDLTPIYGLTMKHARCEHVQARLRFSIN
Procedure: as §2

CYP2C19 = molecular target: T4, CYP2C19 (Homo sapiens, UniProt P33261); experiment: as above; type: in vitro ADME
T4 construct: from tissue; host or cells: human liver microsomes
Procedure: as §2

CYP2D6 = molecular target: T5, CYP2D6 (Homo sapiens, UniProt P10635); experiment: as above; type: in vitro ADME
T5 construct: from tissue; host or cells: human liver microsomes
Procedure: as §2

T1 sequence (P11712 whole entry): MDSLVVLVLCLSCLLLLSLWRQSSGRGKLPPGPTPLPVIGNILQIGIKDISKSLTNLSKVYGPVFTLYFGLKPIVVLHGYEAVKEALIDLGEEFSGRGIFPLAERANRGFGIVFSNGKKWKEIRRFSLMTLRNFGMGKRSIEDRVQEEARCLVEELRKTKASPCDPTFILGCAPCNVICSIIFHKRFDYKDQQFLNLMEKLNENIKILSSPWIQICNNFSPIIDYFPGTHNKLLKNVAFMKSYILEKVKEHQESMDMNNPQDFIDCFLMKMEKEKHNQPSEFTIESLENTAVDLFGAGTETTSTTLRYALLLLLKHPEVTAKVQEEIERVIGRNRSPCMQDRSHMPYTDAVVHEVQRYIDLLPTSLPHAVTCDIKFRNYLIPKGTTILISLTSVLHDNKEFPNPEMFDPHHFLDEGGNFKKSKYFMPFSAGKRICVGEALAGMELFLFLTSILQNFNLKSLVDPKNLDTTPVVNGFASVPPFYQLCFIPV
T5 sequence (P10635 whole entry): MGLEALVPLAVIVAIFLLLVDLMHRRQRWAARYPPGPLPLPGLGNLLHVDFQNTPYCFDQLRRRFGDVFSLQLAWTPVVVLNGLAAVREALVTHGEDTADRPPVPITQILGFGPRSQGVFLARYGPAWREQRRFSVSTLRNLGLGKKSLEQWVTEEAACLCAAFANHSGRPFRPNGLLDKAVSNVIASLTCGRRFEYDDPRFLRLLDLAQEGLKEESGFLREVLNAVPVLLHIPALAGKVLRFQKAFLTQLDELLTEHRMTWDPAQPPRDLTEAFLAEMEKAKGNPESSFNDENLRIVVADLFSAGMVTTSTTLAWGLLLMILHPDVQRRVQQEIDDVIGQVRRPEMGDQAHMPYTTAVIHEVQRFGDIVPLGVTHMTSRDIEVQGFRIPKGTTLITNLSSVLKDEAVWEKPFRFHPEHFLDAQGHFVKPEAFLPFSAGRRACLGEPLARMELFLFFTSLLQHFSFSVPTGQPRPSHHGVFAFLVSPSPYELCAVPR
T2 sequence (P08684 whole entry): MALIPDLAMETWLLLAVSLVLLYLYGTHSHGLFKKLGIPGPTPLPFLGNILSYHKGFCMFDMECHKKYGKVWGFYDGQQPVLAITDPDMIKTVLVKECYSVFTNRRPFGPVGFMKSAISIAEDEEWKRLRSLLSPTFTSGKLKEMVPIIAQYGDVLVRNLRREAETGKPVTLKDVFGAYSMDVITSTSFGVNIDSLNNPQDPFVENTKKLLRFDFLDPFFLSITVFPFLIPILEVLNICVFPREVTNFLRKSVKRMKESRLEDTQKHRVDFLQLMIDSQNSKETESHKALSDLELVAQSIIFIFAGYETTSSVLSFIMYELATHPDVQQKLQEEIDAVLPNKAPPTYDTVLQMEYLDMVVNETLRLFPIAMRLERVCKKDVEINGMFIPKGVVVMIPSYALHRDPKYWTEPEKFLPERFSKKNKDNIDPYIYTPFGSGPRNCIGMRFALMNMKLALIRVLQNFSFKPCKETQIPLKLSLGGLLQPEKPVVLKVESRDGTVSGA
T4 sequence (P33261 whole entry): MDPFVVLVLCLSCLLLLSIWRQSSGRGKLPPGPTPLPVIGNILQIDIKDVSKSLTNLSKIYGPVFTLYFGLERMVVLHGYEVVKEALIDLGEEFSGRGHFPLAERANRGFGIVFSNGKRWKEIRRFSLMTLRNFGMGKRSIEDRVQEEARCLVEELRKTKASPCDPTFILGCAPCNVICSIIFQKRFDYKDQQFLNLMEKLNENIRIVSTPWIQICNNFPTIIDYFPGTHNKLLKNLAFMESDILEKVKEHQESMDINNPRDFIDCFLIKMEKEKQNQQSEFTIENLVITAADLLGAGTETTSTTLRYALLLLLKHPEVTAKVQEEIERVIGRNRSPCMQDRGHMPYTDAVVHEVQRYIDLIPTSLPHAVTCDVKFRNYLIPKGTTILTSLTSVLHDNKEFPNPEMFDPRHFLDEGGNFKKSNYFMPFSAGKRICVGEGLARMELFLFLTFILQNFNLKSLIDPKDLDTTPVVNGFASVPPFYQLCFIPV

COCCCOc1cc2c(cc1OC)-c1cc(=O)c(C(=O)O)cn1[C@H](C(C)(C)C)CO2 [Embodiment 6]
histopathological changes associated with the test compound ([1]; high dose group (1000 mg/kg)): little or mild decrease of white pulp lymphocytes in the spleen
histopathological changes associated with the test compound ([1]; medium and low dose groups (300 and 100 mg/kg), heart, liver and lung examined): no histopathological changes associated with the test compound were observed
fraction unbound at 4 h, 2 μM [2]: 0.443
fraction unbound at 4 h, 2 μM [3]: 0.406
IC50 (CYP2C9): > 50 µM
IC50 (CYP3A4-M): > 50 µM
IC50 (CYP1A2): > 50 µM
IC50 (CYP2C19): > 50 µM
IC50 (CYP2D6): > 50 µM
